Data: ChEMBL document CHEMBL5154649, “Design, synthesis, and characterization of novel aminoalcohol quinolines with strong in vitro antimalarial activity” (Eur J Med Chem, 2022)

Tests used:
Plasmodium falciparum [1] = assay: Antiplasmodial activity against CQ-susceptible Plasmodium falciparum 3D7 assessed as inhibition of parasite growth measured after 48 hrs by SYBR Green 1 dye based fluorescence assay; format: functional, organism-based; details: 3D7, 48 h
Plasmodium falciparum [2] = assay: Selectivity index, ratio of IC50 for antiplasmodial activity against CQ-susceptible Plasmodium falciparum 3D7 to IC50 for antiplasmodial activity against CQ-resistant Plasmodium falciparum W2 by SYBR Green 1 dye based fluorescence assay; format: functional
Plasmodium falciparum [3] = assay: Antiplasmodial activity against CQ-resistant Plasmodium falciparum W2 assessed as inhibition of parasite growth measured after 48 hrs by SYBR Green 1 dye based fluorescence assay; format: functional, organism-based; details: W2, 48 h
Plasmodium falciparum [4] = assay: Selectivity index, ratio of IC50 for antiplasmodial activity against CQ-susceptible Plasmodium falciparum 3D7 to IC50 for antiplasmodial activity CQ-resistant Plasmodium falciparum W2 by HRP2-ELISA; format: functional
Plasmodium falciparum [5] = assay: Antiplasmodial activity CQ-resistant Plasmodium falciparum W2 infected in human erythrocytes assessed as inhibition of parasite growth measured after 72 hrs by HRP2-ELISA; format: functional, organism-based; details: W2, Erythrocyte
Plasmodium falciparum [6] = assay: Antiplasmodial activity against CQ-susceptible Plasmodium falciparum 3D7 infected in human erythrocytes assessed as inhibition of parasite growth measured after 72 hrs by HRP2-ELISA; format: functional, organism-based; details: 3D7, Erythrocyte
[7] = Cytotoxicity against Chinese hamster CHO cells assessed as reduction in cell viability incubated for 24 hrs by MTT assay; format: toxicity, cell-based, Cricetulus griseus
[8] = Cytotoxicity against human THP-1 cells assessed as reduction in cell viability incubated for 72 hrs by MTT assay; format: toxicity, cell-based

SMILES | IC50 (Plasmodium falciparum [1]) [nM] | Ratio IC50 (Plasmodium falciparum [2]) | IC50 (Plasmodium falciparum [3]) [nM] | other results
O[C@H](CNCCN1CCN(C[C@@H](O)c2cc(C(F)(F)F)nc3c(C(F)(F)F)cccc23)CC1)c1cc(C(F)(F)F)nc2c(C(F)(F)F)cccc12 | 361 | 5.8 | 61.8 | 
O[C@H](CN1CCNCC1)c1cc(C(F)(F)F)nc2c(C(F)(F)F)cccc12 | > 1000 |  |  | 
OCCNC[C@@H](O)c1cc(C(F)(F)F)nc2c(C(F)(F)F)cccc12 | > 1000 |  |  | 
CC(C)(CO)NC[C@H](O)c1cc(C(F)(F)F)nc2c(C(F)(F)F)cccc12 | 99.3 | 3.15 | 31.5 | 
OCCCC(CCCO)(CCCO)NC[C@@H](O)c1cc(C(F)(F)F)nc2c(C(F)(F)F)cccc12 | > 1000 |  |  | 
C[C@@H](CO)NC[C@H](O)c1cc(C(F)(F)F)nc2c(C(F)(F)F)cccc12 (single isomer, unassigned) | 138 | 2.7 | 51.7 | 
NCCNC[C@H](O)c1cc(C(F)(F)F)nc2c(C(F)(F)F)cccc12 | > 1000 |  | > 1000 | 
OC[C@H](NC[C@@H](O)c1cc(C(F)(F)F)nc2c(C(F)(F)F)cccc12)c1ccccc1 | 103 | 10.3 | 10.1 | 
C[C@H](CO)NC[C@@H](O)c1cc(C(F)(F)F)nc2c(C(F)(F)F)cccc12 (single isomer, unassigned) | 68.5 | 6.85 | 10 | 
OCCN1CCN(C[C@H](O)c2cc(C(F)(F)F)nc3c(C(F)(F)F)cccc23)CC1 | > 1000 |  |  | 
COC[C@H](C)NC[C@@H](O)c1cc(C(F)(F)F)nc2c(C(F)(F)F)cccc12 | 11.7 | 0.2 | 57.2 | 
O[C@@H](CN1CCN(C[C@H](O)c2cc(C(F)(F)F)nc3c(C(F)(F)F)cccc23)CC1)c1cc(C(F)(F)F)nc2c(C(F)(F)F)cccc12 | > 1000 |  | > 1000 | 
O[C@H](CN1CCN(C(c2ccccc2)c2ccccc2)CC1)c1cc(C(F)(F)F)nc2c(C(F)(F)F)cccc12 | 39 | 1.1 | 36.7 | 
O[C@H](CN1CCN(Cc2cccc3ccccc23)CC1)c1cc(C(F)(F)F)nc2c(C(F)(F)F)cccc12 | > 1000 |  |  | 
OC[C@@H](NC[C@@H](O)c1cc(C(F)(F)F)nc2c(C(F)(F)F)cccc12)c1ccccc1 | 94.4 | 9.6 | 9.8 | 
OCCCC(CCCO)(CCCO)NC[C@H](O)c1cc(C(F)(F)F)nc2c(C(F)(F)F)cccc12 | > 1000 |  |  | 
O[C@H](CNCCCN1CCN(CCCNC[C@@H](O)c2cc(C(F)(F)F)nc3c(C(F)(F)F)cccc23)CC1)c1cc(C(F)(F)F)nc2c(C(F)(F)F)cccc12 | > 1000 | > 1.9 | 534 | 
O[C@@H](CN1CCN(Cc2cccc3ccccc23)CC1)c1cc(C(F)(F)F)nc2c(C(F)(F)F)cccc12 | > 1000 |  |  | 
O[C@@H](CNCCN1CCN(C[C@H](O)c2cc(C(F)(F)F)nc3c(C(F)(F)F)cccc23)CC1)c1cc(C(F)(F)F)nc2c(C(F)(F)F)cccc12 | 453 | 2.5 | 182 | 
CCNCc1cc(Nc2ccnc3cc(Cl)ccc23)ccc1O [DESETHYL AMODIAQUINE] |  |  |  | Ratio IC50 (Plasmodium falciparum [4]): 0.25; IC50 (Plasmodium falciparum [5]): 100 nM; IC50 (Plasmodium falciparum [6]): 24.7 nM
NCCNC[C@@H](O)c1cc(C(F)(F)F)nc2c(C(F)(F)F)cccc12 | > 1000 |  | > 1000 | 
O[C@@H](CNCCCCCCCCCCCCNC[C@H](O)c1cc(C(F)(F)F)nc2c(C(F)(F)F)cccc12)c1cc(C(F)(F)F)nc2c(C(F)(F)F)cccc12 | > 1000 |  | > 1000 | 

SMILES | IC50 (Plasmodium falciparum [1]) [nM] | Ratio IC50 (Plasmodium falciparum [2]) | IC50 (Plasmodium falciparum [3]) [nM] | other results
C[C@@H](CO)NC[C@@H](O)c1cc(C(F)(F)F)nc2c(C(F)(F)F)cccc12 | 166 |  |  | 
O[C@@H](CNCCCN1CCN(CCCNC[C@H](O)c2cc(C(F)(F)F)nc3c(C(F)(F)F)cccc23)CC1)c1cc(C(F)(F)F)nc2c(C(F)(F)F)cccc12 | > 1000 | > 3.1 | 321 | 
O[C@@H](CN1CCN(C(c2ccccc2)c2ccccc2)CC1)c1cc(C(F)(F)F)nc2c(C(F)(F)F)cccc12 | 53.6 | 1.8 | 29.3 | 
O[C@H](CN1CCN(CCN2CCN(C[C@@H](O)c3cc(C(F)(F)F)nc4c(C(F)(F)F)cccc34)CC2)CC1)c1cc(C(F)(F)F)nc2c(C(F)(F)F)cccc12 | 726 |  |  | 
O[C@@H](CN1CCN(CCN2CCN(C[C@H](O)c3cc(C(F)(F)F)nc4c(C(F)(F)F)cccc34)CC2)CC1)c1cc(C(F)(F)F)nc2c(C(F)(F)F)cccc12 | 147 |  | > 1000 | 
NCCCCCCCCCCCCNC[C@@H](O)c1cc(C(F)(F)F)nc2c(C(F)(F)F)cccc12 | 23.9 | 0.55 | 43.8 | 
OCCNC[C@H](O)c1cc(C(F)(F)F)nc2c(C(F)(F)F)cccc12 | > 1000 |  |  | 
CC(C)(CO)NC[C@@H](O)c1cc(C(F)(F)F)nc2c(C(F)(F)F)cccc12 | 254 | 1.9 | 137 | 
COC[C@H](C)NC[C@H](O)c1cc(C(F)(F)F)nc2c(C(F)(F)F)cccc12 | 14.4 | 2.8 | 5.1 | 
OCCN1CCN(C[C@@H](O)c2cc(C(F)(F)F)nc3c(C(F)(F)F)cccc23)CC1 | > 1000 |  |  | 
NC[C@@H](O)c1cc(C(F)(F)F)nc2c(C(F)(F)F)cccc12 |  |  | 1460 | 
O[C@H](CN1CCN(C[C@@H](O)c2cc(C(F)(F)F)nc3c(C(F)(F)F)cccc23)CC1)c1cc(C(F)(F)F)nc2c(C(F)(F)F)cccc12 | 953 | 1.35 | 707 | 
OC[C@@H](NC[C@H](O)c1cc(C(F)(F)F)nc2c(C(F)(F)F)cccc12)c1ccccc1 | 104 | 6.5 | 15.9 | 
NCCCCCCCCCCCCNC[C@H](O)c1cc(C(F)(F)F)nc2c(C(F)(F)F)cccc12 | 176 | 0.5 | 379 | 
C=C[C@H]1CN2CC[C@H]1C[C@H]2[C@H](O)c1ccnc2ccc(OC)cc12 [QUININE] |  |  |  | Ratio IC50 (Plasmodium falciparum [4]): 0.2; IC50 (Plasmodium falciparum [5]): 474 nM; IC50 (Plasmodium falciparum [6]): 74.2 nM
OC[C@H](NC[C@H](O)c1cc(C(F)(F)F)nc2c(C(F)(F)F)cccc12)c1ccccc1 | 136 | 4.55 | 29.9 | 
O[C@H](CNCCCCCCCCCCCCNC[C@@H](O)c1cc(C(F)(F)F)nc2c(C(F)(F)F)cccc12)c1cc(C(F)(F)F)nc2c(C(F)(F)F)cccc12 | 249 | 0.3 | 837 | 
COc1cccc2c1C(=O)c1c(O)c3c(c(O)c1C2=O)C[C@@](O)(C(=O)CO)C[C@@H]3O[C@H]1C[C@H](N)[C@H](O)[C@H](C)O1 [DOXORUBICIN] |  |  |  | IC50 at 24 h [7]: 3.6 µM; IC50 at 72 h [8]: 20 nM
O[C@@H](CN1CCNCC1)c1cc(C(F)(F)F)nc2c(C(F)(F)F)cccc12 | > 1000 |  |  | 
C[C@H]1[C@@H](O)O[C@@H]2O[C@@]3(C)CC[C@H]4[C@H](C)CC[C@@H]1[C@@]24OO3 [ARTENIMOL] |  |  |  | Ratio IC50 (Plasmodium falciparum [4]): 0.9; IC50 (Plasmodium falciparum [5]): 3 nM; IC50 (Plasmodium falciparum [6]): 2.8 nM
C[C@H](CO)NC[C@H](O)c1cc(C(F)(F)F)nc2c(C(F)(F)F)cccc12 | 48.2 | 4.8 | 10.1 | 
